Laboratory results as given in paper PMC5225454, “A Comprehensive Evaluation of the Activity and Selectivity Profile of Ligands for RGD-binding Integrins” (Scientific Reports, 2017).
“And” between values parts separate entries of the source, which are not always exact repeats. Equal entries are not always repeated. Where two headings read alike, the source gives them in different places. Positions of bridges follow the written chain, without caps; N, C: chain ends. Non-standard residues stand in square brackets, D forms with d. Residues, ends and D or L forms follow the SMILES beside them. Groups on a side chain read outwards from the residue. *: point of attachment. X1 = O=C(COCC(=O)*)NCCOCCOCCOCCOCCOCCNC(=O)CO/N=C/c1ccc(F)cc1; X2 = NC(=O)COCC(=O)NCCOCCOCCOCCN*; dPhg = N[C@@H](C(=O)O)c1ccccc1; AEEA = NCCOCCOCC(=O)O; Mpa = O=C(O)CCS

Columns and labels:
human αvβ3-integrin = target: T1, human αvβ3-integrin (Homo sapiens, UniProt P05106+P06756); assay: ELISA-like solid-phase binding assay, soluble integrin αvβ3 vs coated vitronectin; conditions: for IC50: coated vitronectin, soluble integrin, referenced to internal standard
T1 construct: purchased R&D

human αvβ5-integrin = target: T2, human αvβ5-integrin (Homo sapiens, UniProt P06756+P18084); assay: ELISA-like solid-phase binding assay, soluble integrin αvβ5 vs coated vitronectin; conditions: referenced to internal standard
T2 construct: purchased Millipore

human αvβ8-Integrin = target: T3, human αvβ8-Integrin (Homo sapiens, UniProt P06756+P26012); assay: ELISA-like solid-phase binding assay, soluble integrin αvβ8 vs coated LAP (TGF-β); conditions: referenced to internal standard
T3 construct: purchased R&D

[1] = target: T4, human platelet integrin αIIbβ3 (Homo sapiens, UniProt P05106+P08514); assay: ELISA-like solid-phase binding assay, soluble integrin αIIbβ3 vs coated fibrinogen; conditions: referenced to internal standard
T4 construct: purchased VWR

α5β1 integrin [2] = target: T5, α5β1 integrin (Homo sapiens, UniProt P05556+P08648); assay: ELISA-like solid-phase binding assay, soluble integrin α5β1 vs coated fibronectin; design: purchased R&D
human αvβ6-Integrin = target: T6, human αvβ6-Integrin (Homo sapiens, UniProt P06756+P18564); assay: ELISA-like solid-phase binding assay, soluble integrin αvβ6 vs coated LAP (TGF-β); conditions: for IC50: coated LAP, soluble integrin, referenced to internal standard
T6 construct: purchased R&D

α5β1 integrin [3] = target: T5, α5β1 integrin; assay: Solid phase binding assay with surface-coated integrin and soluble fibronectin; conditions: incubation with fibronectin, unpublished data
Description: Tests carried out in cell-free systems, use isolated extracellular domains of integrins in conjunction with ECM proteins, either extracted from human tissue or produced by recombinant methods. Most of these tests are based on competitive solid phase binding assays, in which one component is bound to the multi-well plate and in a subsequent step, soluble ligands are added, testing their capacity to block the binding to that component. Mainly two procedures are described in the literature, differing in the molecule used to coat the surfaces: the isolated integrin extracellular domains or the ECM protein. In the first case, the integrin is coated on the surface, followed by an incubation with a mixture of the native ECM protein and increasing concentrations of the ligand of interest. In an alternative test system, the natural ECM protein (vitronectin for αvβ3 and αvβ5, LAP (TGFβ) for αvβ6 and αvβ8, fibronectin for α5β1 and fibrinogen for αIIbβ3) is immobilized onto the surface, and the soluble integrin, together with a serial dilution of the inhibitory ligand, is added afterwards. The read-out in both procedures is usually done in an ELISA-like manner by using conjugated antibodies recognizing the integrin head groups. […] For a detailed description of the reference to the SI. […]

[4] = cited from earlier work
[5] = coated fibronectin, soluble integrin, referenced to internal standard, read-out: IC50 α5β1

T4 sequence (P08514 32-1039): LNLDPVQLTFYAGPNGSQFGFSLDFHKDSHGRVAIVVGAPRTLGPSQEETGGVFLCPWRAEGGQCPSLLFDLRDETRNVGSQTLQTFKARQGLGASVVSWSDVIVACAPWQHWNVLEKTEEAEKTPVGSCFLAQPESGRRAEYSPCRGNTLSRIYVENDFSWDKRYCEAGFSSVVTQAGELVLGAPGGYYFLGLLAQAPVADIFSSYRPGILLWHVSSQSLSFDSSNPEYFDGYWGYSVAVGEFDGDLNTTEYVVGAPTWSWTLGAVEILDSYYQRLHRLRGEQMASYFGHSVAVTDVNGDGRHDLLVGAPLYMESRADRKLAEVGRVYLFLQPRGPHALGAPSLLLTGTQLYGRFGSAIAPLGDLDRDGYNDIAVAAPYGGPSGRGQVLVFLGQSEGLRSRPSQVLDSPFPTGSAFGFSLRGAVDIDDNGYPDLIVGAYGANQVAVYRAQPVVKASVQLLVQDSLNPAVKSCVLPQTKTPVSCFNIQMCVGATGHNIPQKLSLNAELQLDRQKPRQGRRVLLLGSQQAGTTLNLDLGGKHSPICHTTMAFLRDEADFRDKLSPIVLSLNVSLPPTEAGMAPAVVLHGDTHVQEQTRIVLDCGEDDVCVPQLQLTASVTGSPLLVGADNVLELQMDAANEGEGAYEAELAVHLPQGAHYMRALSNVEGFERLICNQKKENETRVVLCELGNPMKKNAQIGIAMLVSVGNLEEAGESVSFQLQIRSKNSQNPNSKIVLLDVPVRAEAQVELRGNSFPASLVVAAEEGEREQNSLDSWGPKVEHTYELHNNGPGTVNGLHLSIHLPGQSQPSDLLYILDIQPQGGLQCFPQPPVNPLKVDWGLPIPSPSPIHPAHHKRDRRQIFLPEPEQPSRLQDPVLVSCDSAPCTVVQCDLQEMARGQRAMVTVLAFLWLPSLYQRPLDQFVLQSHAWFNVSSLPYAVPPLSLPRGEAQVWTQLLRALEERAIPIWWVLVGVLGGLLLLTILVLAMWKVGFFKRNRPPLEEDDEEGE
T4 sequence (P05106 27-788): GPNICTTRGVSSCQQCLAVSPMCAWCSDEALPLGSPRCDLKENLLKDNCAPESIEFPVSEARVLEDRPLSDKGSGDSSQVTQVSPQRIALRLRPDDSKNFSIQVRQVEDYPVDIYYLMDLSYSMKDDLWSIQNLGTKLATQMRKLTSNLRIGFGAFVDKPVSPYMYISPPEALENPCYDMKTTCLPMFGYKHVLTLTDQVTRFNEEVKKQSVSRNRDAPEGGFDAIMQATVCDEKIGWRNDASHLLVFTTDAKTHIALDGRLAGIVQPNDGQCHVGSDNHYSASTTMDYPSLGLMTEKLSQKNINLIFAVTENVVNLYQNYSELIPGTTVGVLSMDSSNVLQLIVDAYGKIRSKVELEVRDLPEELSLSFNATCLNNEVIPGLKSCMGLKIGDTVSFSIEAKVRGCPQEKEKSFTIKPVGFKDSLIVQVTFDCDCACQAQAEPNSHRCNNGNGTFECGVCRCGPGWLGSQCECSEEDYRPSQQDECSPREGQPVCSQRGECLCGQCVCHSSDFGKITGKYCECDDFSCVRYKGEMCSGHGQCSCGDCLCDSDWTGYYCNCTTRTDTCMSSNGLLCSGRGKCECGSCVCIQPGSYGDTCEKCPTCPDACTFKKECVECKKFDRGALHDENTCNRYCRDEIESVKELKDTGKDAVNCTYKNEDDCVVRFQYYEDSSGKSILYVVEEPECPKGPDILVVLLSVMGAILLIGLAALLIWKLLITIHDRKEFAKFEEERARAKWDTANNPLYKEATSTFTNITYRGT
T5 sequence (P08648 42-995 limits assumed): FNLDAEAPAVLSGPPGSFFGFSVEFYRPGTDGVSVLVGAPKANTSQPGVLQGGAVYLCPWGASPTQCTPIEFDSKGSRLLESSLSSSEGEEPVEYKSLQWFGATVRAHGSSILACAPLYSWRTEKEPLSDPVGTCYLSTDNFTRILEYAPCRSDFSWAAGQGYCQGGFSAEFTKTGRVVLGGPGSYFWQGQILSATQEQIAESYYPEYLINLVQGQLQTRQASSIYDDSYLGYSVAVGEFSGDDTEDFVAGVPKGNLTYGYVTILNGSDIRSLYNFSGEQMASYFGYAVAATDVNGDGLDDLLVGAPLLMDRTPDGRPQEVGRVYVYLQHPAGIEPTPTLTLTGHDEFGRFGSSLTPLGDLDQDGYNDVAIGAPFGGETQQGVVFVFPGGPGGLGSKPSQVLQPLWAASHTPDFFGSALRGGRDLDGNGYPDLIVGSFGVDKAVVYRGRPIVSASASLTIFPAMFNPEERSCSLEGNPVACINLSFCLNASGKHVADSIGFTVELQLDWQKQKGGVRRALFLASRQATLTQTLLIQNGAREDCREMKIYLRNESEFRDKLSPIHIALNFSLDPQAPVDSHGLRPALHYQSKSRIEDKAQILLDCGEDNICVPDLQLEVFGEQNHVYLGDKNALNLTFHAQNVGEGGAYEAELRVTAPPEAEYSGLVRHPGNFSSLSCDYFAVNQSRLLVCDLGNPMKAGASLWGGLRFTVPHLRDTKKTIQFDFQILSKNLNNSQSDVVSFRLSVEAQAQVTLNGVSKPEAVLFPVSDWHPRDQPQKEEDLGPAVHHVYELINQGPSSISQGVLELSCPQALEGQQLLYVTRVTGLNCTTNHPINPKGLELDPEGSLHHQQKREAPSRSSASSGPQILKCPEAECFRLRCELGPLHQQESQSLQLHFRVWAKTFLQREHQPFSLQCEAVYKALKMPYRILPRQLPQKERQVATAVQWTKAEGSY
T5 sequence (P05556 21-728 limits assumed): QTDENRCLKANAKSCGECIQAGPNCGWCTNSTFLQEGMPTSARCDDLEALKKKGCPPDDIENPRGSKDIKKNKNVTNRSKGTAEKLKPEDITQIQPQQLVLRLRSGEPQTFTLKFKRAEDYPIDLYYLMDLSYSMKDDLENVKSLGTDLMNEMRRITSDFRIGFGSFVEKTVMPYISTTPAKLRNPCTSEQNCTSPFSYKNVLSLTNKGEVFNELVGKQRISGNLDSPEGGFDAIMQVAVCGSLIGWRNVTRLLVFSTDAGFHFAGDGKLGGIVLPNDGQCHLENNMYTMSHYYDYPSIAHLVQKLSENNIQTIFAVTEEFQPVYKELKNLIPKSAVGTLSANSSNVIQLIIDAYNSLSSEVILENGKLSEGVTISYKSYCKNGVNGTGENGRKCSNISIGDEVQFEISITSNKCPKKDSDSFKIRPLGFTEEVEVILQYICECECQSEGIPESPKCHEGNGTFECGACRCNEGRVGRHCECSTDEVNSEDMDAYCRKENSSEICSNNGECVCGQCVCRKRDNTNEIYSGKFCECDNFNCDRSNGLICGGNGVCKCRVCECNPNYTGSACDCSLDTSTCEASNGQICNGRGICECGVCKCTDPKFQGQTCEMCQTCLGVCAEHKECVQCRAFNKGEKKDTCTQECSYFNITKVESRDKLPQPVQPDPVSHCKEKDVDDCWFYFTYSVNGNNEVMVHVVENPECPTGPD
T6 sequence (P06756 31-992 limits assumed): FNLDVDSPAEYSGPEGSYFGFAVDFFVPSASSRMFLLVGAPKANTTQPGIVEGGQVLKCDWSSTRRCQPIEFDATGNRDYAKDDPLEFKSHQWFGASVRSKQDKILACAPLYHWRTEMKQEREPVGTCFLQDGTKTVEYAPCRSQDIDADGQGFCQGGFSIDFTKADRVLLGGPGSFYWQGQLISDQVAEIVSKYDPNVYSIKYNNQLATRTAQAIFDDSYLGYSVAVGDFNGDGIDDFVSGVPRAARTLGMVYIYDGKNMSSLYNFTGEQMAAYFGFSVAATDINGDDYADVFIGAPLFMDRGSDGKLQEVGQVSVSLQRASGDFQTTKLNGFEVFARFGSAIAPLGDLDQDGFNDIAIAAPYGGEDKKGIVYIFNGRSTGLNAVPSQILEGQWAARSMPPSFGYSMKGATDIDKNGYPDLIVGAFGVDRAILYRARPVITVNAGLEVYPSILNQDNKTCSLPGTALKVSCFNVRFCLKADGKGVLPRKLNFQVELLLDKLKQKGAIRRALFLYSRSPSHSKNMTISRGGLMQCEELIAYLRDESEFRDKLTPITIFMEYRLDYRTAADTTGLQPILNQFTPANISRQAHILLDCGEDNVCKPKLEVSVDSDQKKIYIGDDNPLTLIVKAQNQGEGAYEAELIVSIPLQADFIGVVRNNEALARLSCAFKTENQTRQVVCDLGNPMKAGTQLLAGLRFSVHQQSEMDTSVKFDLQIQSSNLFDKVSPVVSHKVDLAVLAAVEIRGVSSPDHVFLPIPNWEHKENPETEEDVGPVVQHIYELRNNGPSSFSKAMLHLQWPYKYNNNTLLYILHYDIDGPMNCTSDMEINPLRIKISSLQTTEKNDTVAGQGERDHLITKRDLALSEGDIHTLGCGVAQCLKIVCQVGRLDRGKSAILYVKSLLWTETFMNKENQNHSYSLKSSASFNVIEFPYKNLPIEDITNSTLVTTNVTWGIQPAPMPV
T6 sequence (P18564 22-707 limits assumed): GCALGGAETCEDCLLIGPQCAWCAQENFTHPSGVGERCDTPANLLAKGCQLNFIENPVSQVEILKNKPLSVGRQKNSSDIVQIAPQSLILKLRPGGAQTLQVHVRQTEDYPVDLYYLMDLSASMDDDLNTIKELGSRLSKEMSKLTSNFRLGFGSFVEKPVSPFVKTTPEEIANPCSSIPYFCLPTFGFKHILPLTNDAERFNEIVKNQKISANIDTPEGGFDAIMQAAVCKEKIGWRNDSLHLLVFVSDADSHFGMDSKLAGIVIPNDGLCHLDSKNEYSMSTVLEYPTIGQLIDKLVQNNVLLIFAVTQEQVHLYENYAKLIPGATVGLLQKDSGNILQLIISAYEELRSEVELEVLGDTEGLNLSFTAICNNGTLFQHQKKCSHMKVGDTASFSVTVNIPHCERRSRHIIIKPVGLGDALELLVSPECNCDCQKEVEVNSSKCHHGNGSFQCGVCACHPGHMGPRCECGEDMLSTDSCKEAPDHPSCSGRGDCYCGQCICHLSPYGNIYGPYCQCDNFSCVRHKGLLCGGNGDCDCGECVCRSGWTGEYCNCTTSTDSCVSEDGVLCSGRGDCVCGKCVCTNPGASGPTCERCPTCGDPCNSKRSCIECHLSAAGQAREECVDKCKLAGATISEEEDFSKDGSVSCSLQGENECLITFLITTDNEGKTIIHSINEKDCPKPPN

Molecule	IC50 (human αvβ3-integrin) [nM]	IC50 (human αvβ5-integrin) [nM]	IC50 (human αvβ8-Integrin) [nM]	IC50 [1] [nM]	IC50 (α5β1 integrin [2]; [5]) [nM]	IC50 (human αvβ6-Integrin)	further results
CC(C)C[C@H](NC(=O)[C@H](CO)NC(=O)[C@H](CC(=O)O)NC(=O)[C@H](CC(C)C)NC(=O)[C@H](CC(=O)O)NC(=O)[C@@H](NC(=O)[C@@H](N)CCCNC(=N)N)[C@@H](C)O)C(=O)N[C@@H](CCCNC(=N)N)C(=O)N[C@H](C(=O)O)[C@@H](C)O	6230 ± 540	> 10000	320 ± 25	> 10000	> 10000	–	–
CC(C)C[C@H](NC(=O)[C@H](CC(=O)O)NC(=O)CNC(=O)[C@H](CCCNC(=N)N)NC(=O)[C@H](CC(C)C)NC(=O)[C@H](CC(N)=O)NC(=O)[C@@H]1CCCN1C(=O)[C@@H](NC(=O)[C@H](C)NC(=O)[C@@H](N)CC(N)=O)C(C)C)C(=O)N[C@@H](CCC(N)=O)C(=O)N[C@H](C(=O)N[C@@H](CC(C)C)C(=O)N[C@@H](C)C(=O)N[C@@H](CCC(N)=O)C(=O)N[C@@H](CCCCN)C(=O)N[C@H](C(=O)N[C@@H](C)C(=O)N[C@@H](CCCNC(=N)N)C(=O)N[C@H](C(=O)O)[C@@H](C)O)C(C)C)C(C)C [A20FMDV2]	–	–	–	–	–	–	IC50 (α5β1 integrin [2]): > 10000 nM
CC(=O)N1CCC[C@H]1C(=O)N[C@@H](Cc1c[nH]cn1)C(=O)N[C@@H](CO)C(=O)N[C@@H](CS)C(=O)N[C@@H](CC(N)=O)C(N)=O [ATN161, Ac-PHSCN-NH2] (Ac-PHSCN-NH2)	> 10000	> 10000	> 10000	> 10000	4.2 ± 0.5	3130 ± 591 nM	–
CC(C)[C@H]1C(=O)N[C@@H](CCCNC(=N)N)C(=O)NCC(=O)N[C@@H](CC(=O)O)C(=O)N[C@H](Cc2ccccc2)C(=O)N1C [Cilengitide, c(RGDf(NMe)V)]	–	–	–	–	–	–	antagonistic activity towards coated α5β1 (α5β1 integrin [3]): low antagonistic activities; half-life in man [4]: about four; systemic metabolism ([4]; man): not metabolized systemically
N=C(N)NCCC[C@@H]1NC(=O)[C@@H]2CSSC[C@H](NC(=O)[C@H](CC(=O)O)NC(=O)CNC1=O)C(=O)N[C@@H](Cc1ccccc1)C(=O)N[C@H](C(=O)NCCOCCOCCOCCNC(=O)COCC(N)=O)CSCC(=O)N[C@@H](CCCCNC(=O)COCC(=O)NCCOCCOCCOCCOCCOCCNC(=O)CO/N=C/c1ccc(F)cc1)C(=O)N2 [Flucilatide] ({CH2CO}-K(X1)CRGDCFC-X2; disulfide 2-6; thioether N-8; N-terminus and C-terminus assumed)	–	–	–	–	–	–	fold change of αvβ3 IC50-value after functionalization (human αvβ3-integrin; versus targeting unit NC100717): 3 fold
N=C(N)c1ccc(N2CCN(C3CCN(CC(=O)O)CC3)CC2)cc1 [GR144053, 4-[4-[4-(aminoiminomethyl)phenyl]-1-piperazinyl]-1-piperidineacetic acid]	> 10000	> 10000	> 10000	18 ± 2.2	> 10000	> 10000 nM	–
N=C(N)NCCC[C@H](NC(=O)CN)C(=O)NCC(=O)N[C@@H](CC(=O)O)C(=O)N[C@@H](CC(N)=O)C(=O)N1CCC[C@H]1C(=O)O [GRGDNP] (H-GRGDNP-OH)	45 ± 12	506 ± 120	> 10000	> 10000	34 ± 3	> 10000 nM	–
NCCCC[C@H](NC(=O)[C@@H]1CCCN1C(=O)[C@H](CO)NC(=O)[C@H](CC(=O)O)NC(=O)CNC(=O)[C@H](CCCN=C(N)N)NC(=O)CN)C(=O)O [GRGDSPK]	12.2 ± 0.1	201 ± 32	> 10000	> 10000	66 ± 6	1030 ± 242 nM	–
N=C(N)NCCC[C@H](NC(=O)CN)C(=O)NCC(=O)N[C@@H](CC(=O)O)C(=O)N[C@@H](CO)C(=O)O [GRGDS]	–	–	–	–	77 ± 8	–	–
C[C@@H](O)[C@H](NC(=O)[C@H](CC(=O)O)NC(=O)CNC(=O)[C@H](CCCNC(=N)N)NC(=O)CN)C(=O)N1CCC[C@H]1C(=O)O [GRGDTP] (H-GRGDTP-OH)	28 ± 5	423 ± 65	> 10000	> 10000	84 ± 12	> 10000 nM	–
N=C(N)NCCC[C@H](NC(=O)CN)C(=O)NCC(=O)N[C@@H](CC(=O)O)C(=O)O [GRGD] (H-GRGD-OH)	55 ± 7	580 ± 23	> 10000	> 10000	137 ± 14	> 10000 nM	–
Cc1ccnc(NCCCC(=O)NCC(=O)NC(CC(=O)O)c2ccc(-c3cccc4ccccc34)cc2)c1 (centres unmarked) [Mol11*]	13.2 ± 0.5	530 ± 49	18.5 ± 4.3	> 10000	3020 ± 410	1.3 nM and 1.32 nM	–
N=C(N)NCCC[C@@H]1NC(=O)[C@@H]2CSSC[C@H](NC(=O)[C@H](CC(=O)O)NC(=O)CNC1=O)C(=O)N[C@@H](Cc1ccccc1)C(=O)N[C@H](C(=O)NCCOCCOCCOCCNC(=O)COCC(N)=O)CSCC(=O)N[C@@H](CCCCN)C(=O)N2 [NC100717] ({CH2CO}-KCRGDCFC-X2; disulfide 2-6; thioether N-8; N-terminus and C-terminus assumed)	1.1 ± 0.1	16.7 ± 2.1	> 10000	> 10000	820 ± 156	> 10000 nM	–
C[C@H](N)C(=O)N[C@H]1CSSC[C@@H](C(=O)NCC(=O)O)NC(=O)[C@H](Cc2ccccc2)NC(=O)[C@@H]2CSSC[C@H](NC(=O)[C@H](CC(=O)O)NC1=O)C(=O)N[C@@H](CCCNC(=N)N)C(=O)NCC(=O)N[C@@H](CC(=O)O)C(=O)N2 [RGD-4C] (H-ACDCRGDCFCG-OH; disulfide 2-10, 4-8)	8.3 ± 2.1	46 ± 11	> 10000	> 10000	244 ± 37	380 ± 44 nM	IC50 αvβ8 (human αvβ8-Integrin): no affinity; IC50 αIIbβ3 [1]: no affinity
NC(N)=NCCC[C@H](N)C(=O)NCC(=O)N[C@@H](CC(=O)O)C(=O)N[C@@H](CO)C(=O)O [RGDS]	45 ± 5	433 ± 34	> 10000	–	181 ± 23	> 10000 nM	–
N=C(N)NCCC[C@H](N)C(=O)NCC(=O)N[C@@H](CC(=O)O)C(=O)O [RGD]	89 ± 12	440 ± 65	> 10000	> 10000	–	> 10000 nM	–
CCCCS(=O)(=O)N[C@@H](Cc1ccc(OCCCCC2CCNCC2)cc1)C(=O)O [Tirofiban]	> 10000	> 10000	> 10000	–	> 10000	> 10000 nM	–
N=C(N)NCCC[C@@H]1NC(=O)[C@H](CS)NC(=O)[C@@H](Cc2ccccc2)NC(=O)[C@H](CC(=O)O)NC(=O)CNC1=O [c(RGDfC)] (cyclo(RGD[dF]C))	6.3 ± 0.5	433 ± 23	> 10000	> 10000	215 ± 55	121 ± 10 nM	–
N=C(N)NCCC[C@@H]1NC(=O)[C@H](CCCCNC(=O)CCOCCOCCOCCOCCOCCOCCNC(=O)CCS)NC(=O)[C@@H](Cc2ccccc2)NC(=O)[C@H](CC(=O)O)NC(=O)CNC1=O [c(RGDfK)-Peg-MPA]	15 ± 1.8	390 ± 53	> 10000	> 10000	201 ± 31	422 ± 44 nM	–
N=C(N)NCCC[C@@H]1NC(=O)[C@H](CCCCN)NC(=O)[C@@H](Cc2ccccc2)NC(=O)[C@H](CC(=O)O)NC(=O)CNC1=O [c(RGDfK)]	–	340 ± 24	5200 ± 670	> 10000	141 ± 15	–	–
N=C(N)NCCC[C@@H]1NC(=O)[C@H](CCCCN)NC(=O)[C@@H](Cc2ccc(O)cc2)NC(=O)[C@H](CC(=O)O)NC(=O)CNC1=O [c(RGDyK)]	–	–	> 10000	–	236 ± 45	–	–
N=C(N)NCCC[C@@H]1NC(=O)CNC(=O)C[C@@H](C(=O)O)NC(=O)[C@@H](c2ccccc2)NC(=O)[C@@H](CCCCNC(=O)COCCOCCNC(=O)CCS)NC1=O [c(phgisoDGRk)-Peg-MPA] (GR[dK]([AEEA-Mpa])[dPhg]D-OH; lactam N-5)	> 10000	> 10000	> 10000	> 10000	31 ± 3.4	52 ± 4.8 nM	fold change of αvβ6 IC50-value after functionalization (human αvβ6-Integrin; versus c(phgisoDGRk)): 2 fold; fold change of α5β1 IC50-value after functionalization (α5β1 integrin [2]; versus c(phgisoDGRk)): 2 fold
N=C(N)NCCC[C@@H]1NC(=O)CNC(=O)C[C@@H](C(=O)O)NC(=O)[C@@H](c2ccccc2)NC(=O)[C@@H](CCCCN)NC1=O [c(phgisoDGRk)] (GR[dK][dPhg]D-OH; lactam N-5)	> 10000	> 10000	77 ± 6	> 10000	9.43 ± 1.33	18 ± 2.5 nM	–
Echistatin	0.46 ± 0.14	1.4 ± 0.2	12.8 ± 2.5	0.9 ± 0.24	0.57 ± 0.19	–	–
